In ChEMBL document CHEMBL1139259, “Molecular modeling, synthesis, and activity studies of novel biaryl and fused-ring BACE1 inhibitors” (Bioorg Med Chem Lett, 2009):

Tests used:
Beta-secretase 2 = biological target: T1, Beta-secretase 2 (Homo sapiens, UniProt Q9Y5Z0); assay: Inhibition of BACE2 expressed in human 293T cells; type: cell-based
T1 sequence (Q9Y5Z0 whole entry): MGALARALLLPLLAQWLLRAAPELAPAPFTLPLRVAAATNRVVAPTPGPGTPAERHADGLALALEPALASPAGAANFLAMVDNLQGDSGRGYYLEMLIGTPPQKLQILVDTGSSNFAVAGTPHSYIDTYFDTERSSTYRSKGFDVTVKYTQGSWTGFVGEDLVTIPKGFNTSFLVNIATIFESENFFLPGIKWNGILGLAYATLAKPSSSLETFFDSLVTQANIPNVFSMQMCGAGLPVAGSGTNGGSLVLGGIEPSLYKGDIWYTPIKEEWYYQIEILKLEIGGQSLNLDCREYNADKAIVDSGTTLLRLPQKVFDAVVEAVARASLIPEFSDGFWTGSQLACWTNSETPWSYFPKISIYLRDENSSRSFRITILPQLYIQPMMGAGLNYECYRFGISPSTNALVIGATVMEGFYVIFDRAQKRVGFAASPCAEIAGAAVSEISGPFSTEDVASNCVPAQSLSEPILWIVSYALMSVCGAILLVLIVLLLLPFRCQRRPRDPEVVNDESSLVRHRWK

Beta-secretase 1 = Beta-secretase 1 (Homo sapiens, UniProt P56817)
Description: Inhibition of BACE1 expressed in human 293T cells

N2a = assay: Reduction of amyloid beta40 level in mouse N2A cells expressing Swedish mutant human APP695 at 10 uM after 24 hrs by ELISA; type: functional; design: scale not given: the % may be the effect or the level left

Chain of Beta-secretase 1 (P56817 whole entry): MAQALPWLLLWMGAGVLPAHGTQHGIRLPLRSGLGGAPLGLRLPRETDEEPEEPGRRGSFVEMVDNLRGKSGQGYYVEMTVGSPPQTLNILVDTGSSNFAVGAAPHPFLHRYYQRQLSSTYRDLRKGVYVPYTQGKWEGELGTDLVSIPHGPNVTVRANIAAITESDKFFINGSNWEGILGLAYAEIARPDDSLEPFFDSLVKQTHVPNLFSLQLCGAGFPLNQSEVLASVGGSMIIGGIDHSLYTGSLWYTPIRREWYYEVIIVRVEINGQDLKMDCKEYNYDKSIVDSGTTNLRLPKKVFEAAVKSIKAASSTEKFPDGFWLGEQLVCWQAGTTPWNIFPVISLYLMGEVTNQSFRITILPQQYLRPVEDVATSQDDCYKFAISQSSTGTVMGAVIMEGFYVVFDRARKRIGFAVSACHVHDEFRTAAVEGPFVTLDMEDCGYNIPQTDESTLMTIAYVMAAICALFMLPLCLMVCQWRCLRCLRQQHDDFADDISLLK

| IC50 (Beta-secretase 2) | IC50 (Beta-secretase 1) | SMILES | Activity (N2a) |
| --- | --- | --- | --- |
| > 100000 nM | 811 nM | C[C@@H](NC(=O)c1cc(C(=O)N[C@@H](Cc2ccccc2)[C@H](O)CNC2CC2)cc(-c2ccc(Cl)cc2)c1)c1ccccc1 |  |
| > 100000 nM | 889 nM | C#Cc1cc(C(=O)N[C@@H](Cc2ccccc2)[C@H](O)CNC2CC2)cc(C(=O)N[C@H](C)c2ccccc2)c1 |  |
| 2090 nM | 740 nM | C[C@@H](NC(=O)c1cc(C(=O)N[C@@H](Cc2ccccc2)[C@H](O)CNC2CC2)cc2c1CCCO2)c1ccc(F)cc1 |  |
| > 100000 nM | 1120 nM | C[C@@H](NC(=O)c1cc(C#Cc2ccccc2)cc(C(=O)N[C@@H](Cc2ccccc2)[C@H](O)CNC2CC2)c1)c1ccccc1 |  |
| 1950 nM | 262 nM | C[C@@H](NC(=O)c1cc(C(=O)N[C@@H](Cc2ccccc2)[C@H](O)CNC2CC2)cc2c1CCCCO2)c1ccc(F)cc1 |  |
| > 100000 nM | 1260 nM | C[C@@H](NC(=O)c1cc(C(=O)N[C@@H](Cc2ccccc2)[C@H](O)CNC2CC2)cc(-c2cn(Cc3ccccc3)nn2)c1)c1ccccc1 |  |
| > 100000 nM | 2230 nM | C[C@@H](NC(=O)c1cc(C(=O)N[C@@H](Cc2ccccc2)[C@H](O)CNC2CC2)cc(-c2ccsc2)c1)c1ccccc1 |  |
| 251 nM | 158 nM | C[C@@H](NC(=O)c1cc(C(=O)N[C@@H](Cc2ccccc2)[C@H](O)CNC2CC2)cc(N2CCCCS2(=O)=O)c1)c1ccccc1 |  |
| 141 nM | 1770 nM | C[C@@H](NC(=O)c1cc(C(=O)N[C@@H](Cc2ccccc2)[C@H](O)CNC2CC2)cc(N2CCCS2(=O)=O)c1)c1ccccc1 |  |
| > 100000 nM | 1580 nM | C[C@@H](NC(=O)c1cc(O)cc(C(=O)N[C@@H](Cc2ccccc2)[C@H](O)CNC2CC2)c1)c1ccccc1 |  |
| > 100000 nM | 2510 nM | COc1cc(C(=O)N[C@@H](Cc2ccccc2)[C@H](O)CNC2CC2)cc(C(=O)N[C@H](C)c2ccccc2)c1 |  |

| SMILES | IC50 (Beta-secretase 2) | IC50 (Beta-secretase 1) | Activity (N2a) |
| --- | --- | --- | --- |
| C[C@@H](NC(=O)c1cc2c(c(C(=O)N[C@@H](Cc3ccccc3)[C@H](O)CNC3CC3)c1)CCCCO2)c1ccccc1 | > 100000 nM | 89 nM |  |
| C[C@@H](NC(=O)c1cc(C(=O)N[C@@H](Cc2ccccc2)[C@H](O)CNC2CC2)cc2c1CCCO2)c1ccccc1 | > 100000 nM | 63 nM | 65% |
| C[C@@H](NC(=O)c1cc2c(c(C(=O)N[C@@H](Cc3ccccc3)[C@H](O)CNC3CC3)c1)CCCO2)c1ccccc1 | > 100000 nM | 112 nM |  |
| C[C@@H](NC(=O)c1cc(C(=O)N[C@@H](Cc2ccccc2)[C@H](O)CNC2CC2)cc2c1CCCCO2)c1ccccc1 | > 100000 nM | 56 nM | 35% |
| Cc1cc2c(C(=O)N[C@H](C)c3ccccc3)cc(C(=O)N[C@@H](Cc3ccccc3)[C@H](O)CNC3CC3)cc2o1 | > 100000 nM | 524 nM |  |
| Cc1cc2c(C(=O)N[C@@H](Cc3ccccc3)[C@H](O)CNC3CC3)cc(C(=O)N[C@H](C)c3ccccc3)cc2o1 | > 100000 nM | 998 nM |  |
